US8410141B2, “Insecticidal arylpyrrolines” (Bayer Cropscience AG, priority 2009, dated 2013)

Tests used:
Assay type in all cases: in vivo
[1] = tested on: mustard beetle larvae (Phaedon cochleariae); assay: Phaedon cochleariae test, PHAECO spray application; conditions: 100 g/ha; Chinese cabbage leaf-disks sprayed; after 7 days
Method: Solvent: 78.0 parts by weight of acetone
• 1.5 parts by weight of dimethylformamide Emulsifier: 0.5 parts by weight of alkylaryl polyglycolether
(§1) To produce a suitable preparation of active compound, 1 part by weight of active compound is mixed with the stated amount of solvent and emulsifier, and the concentrate is diluted with emulsifier-containing water to the desired concentration.
Chinese cabbage (Brassica pekinesis) leaf-disks are sprayed with a preparation of the active ingredient of the desired concentration. Once dry, the leaf disks are infested with mustard beetle larvae (Phaedon cochleariae).
After 7 days mortality in % is determined. 100% means that all beetle larvae have been killed and 0% means that none of the beetle larvae have been killed.

[2] = tested on: two spotted spidermite (Tetranychus urticae), OP-resistant; assay: Tetranychus urticae test, OP-resistant (TETRUR spray application); conditions: 100 g/ha; French beans sprayed; all stages; after 6 days
Method: (§2) Solvent: 78.0 parts by weight acetone
(§3) • 1.5 parts by weight dimethylformamide Emulsifier: 0.5 parts by weight alkylarylpolyglycolether
as §1, with “concentration. French beans (Phaseolus vulgaris) which are heavily infested with all stages of the two spotted spidermite (Tetranychus urticae), are sprayed with a preparation of the active ingredient at the desired concentration.” for “concentration.”
After 6 days mortality in % is determined. 100% means that all spider mites have been killed and 0% means that none of the spider mites have been killed.

[3] = tested on: green peach aphid (Myzus persicae); assay: Myzus test, oral (MYZUPE O); conditions: 100 g/ha; aphids suck on preparation; after 5 days
Method: Solvent: 80 parts by weight acetone
To produce a suitable preparation of active compound, 1 part by weight of active compound ist mixed with the stated amount of solvent and emulsifier, and the concentrate is diluted with emulsifier-containing water to the desired concentration. Containers are infested with a mixed population of the green peach aphid (Myzus persicae), the aphids suck on a preparation of the active compound at the desired concentration.
After 5 days mortality in % is determined. 100% means that all aphids have been killed; 0% means that none of the aphids have been killed.

[4] = tested on: fall armyworm larvae (Spodoptera frugiperda); assay: Spodoptera frugiperda test, SPODFR spray application; conditions: 100 g/ha; maize leaf sections sprayed; after 7 days
From the text: as §2, §3
To produce a suitable preparation of the active compound, 1 part by weight of active compound is mixed with the stated amount of solvent and emulsifier, and the concentrate is dilutes with emulsifier-containing water to the desired concentration. Maize (Zea mais) leaf sections are sprayed with a preparation of the active ingredient of the desired concentration. Once dry, the leaf sections are infested with fall armyworm larvae (Spodoptera frugiperda).
After 7 days mortality in % is determined. 100% means that all caterpillars have been killed and 0% means that none of the caterpillars have been killed.

## CN(C)c1c(Cl)cc(C2(C(F)(F)F)CN=C(c3ccc(-n4cncn4)c(C#N)c3)C2)cc1Cl (stereo not shown) [1-3]
[1]
  mortality: 100%
[2]
  mortality: 100%
[3]
  mortality: 100%
[4]
  mortality: 83%
